{"source": "patent US20060062797A1", "about": "“Novel materials and methods for the treatment of Alzheimer's disease patients” (The Research Foundation of State University of New York at …, priority 2004, published 2006)", "key": {"[1]": {"system": "in vitro neuronal cell culture", "assay": "Neurotoxicity of inhibitor peptides alone in neuronal cell culture (cell count)", "format": "cell-based", "conditions": "peptide alone", "procedure": "(§1) An in vitro neuronal cell culture was grown to confluence and studied by cell count as a measure of neurotoxicity. Neurotoxicity was observed following one or two days of incubation with either polymerized Aβ1-42 peptide into amyloid fibrils (ag) or free (i.e., non-polymerized) Aβ1-42 peptides (sol). (See FIG. 9)."}, "[2]": {"assay": "Neurotoxicity of inhibitor peptides alone in neuronal cell culture (cell count)", "format": "cell-based", "conditions": "neuronal cell culture, 48 Hour Incubation, read-out: % Survival", "procedure": "as §1"}, "[3]": {"system": "Aβ1-42 peptide induced neurotoxicity in neuronal cell culture", "assay": "Protection against Aβ1-42 peptide induced neurotoxicity in neuronal cell culture", "format": "cell-based", "conditions": "for inhibition of Aβ1-42 peptide induced neurotoxicity: 1:10 and 1:20; for reduction of Aβ1-42 neurotoxicity: added before Aβ1-42 peptides were allowed to polymerize; for amyloid plaque inhibition activity with protected termini: N- or C-terminal protected or both protected, data not shown", "procedure": "These peptides were tested in cell toxicity assays for their ability to prevent cell death (i.e., for example, by apoptotic mechanisms) induced by the Aβ1-42 peptide (SEQ ID NO:157).\nas §1\n(See FIG. 11A). […] (See FIG. 11B)."}, "Aβ1-42 peptide [4]": {"target": "T1, Aβ1-42 peptide (Homo sapiens, UniProt P05067)", "T1 sequence (P05067 672-713)": "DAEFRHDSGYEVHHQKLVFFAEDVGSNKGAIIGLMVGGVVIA", "conditions": "Soto et al. 1996, 1998; cited from earlier work"}, "GpA70-86 fibrils": {"target": "T2, GpA70-86 fibrils (Homo sapiens, UniProt P02724)", "T2 construct": "comprising a 17 amino acid peptide corresponding to amino acid residues 70-86", "assay": "Glycophorin A transmembrane peptide (GpA70-86) fibril formation, solid-state NMR", "format": "biochemical", "conditions": "for ability to inhibit amyloid fibril formation: \"this assay system\" of Example 2", "procedure": "In the experiments below, magic-angle-spinning (MAS) NMR was performed at 360 and 600 MHz on Bruker Avance NMR spectrometers using 4 mm MAS rotors. The cross polarization contact time was 2 ms, two-pulse phase-modulated (TPPM) decoupling was used during the evolution and mixing periods and the dipolar-assisted rotational-resonance (DARR) mixing time was 1 sec. The proton field strength was set to the n =1 rotational resonance condition during the mixing period. Takegoshi et al., “^13C-^1H Dipolar-Driven ^13C-^13C Recoupling Without ^13C RF Irradiation In Nuclear Magnetic Resonance Of Rotating Solids” J. Chem. Phys. 118:2325-2341 (2003). DARR gives rise to off-diagonal cross peaks in the 2D NMR spectra if the ^13C . . . ^13C contacts are less than 6 A apart.\nThis experiment tested the idea that the large side chain amino acids on one sheet dovetail into the grooves formed by glycine on an opposing β-sheet using a mixture of two differently labeled pools of GpA70-86 peptide. A first set of peptides were labeled with a single ^13C isotope label at the backbone carbonyl carbon of Gly^79. A second set of peptides were ^13C -labeled at the Met^81 methyl side chain group. Computer modeling of the GpA70-86 peptide β-sandwich predicted an inter-β-sheet distance of 3-5 Å between the carbonyl ^13C of Gly^79 and the ^13CH3 of Met^81. The intra-sheet distance, however, was predicted to be ˜8-10 Å, and outside of the detection range of the NMR experiment used. Solid-state NMR techniques measured the intermolecular distance between Met^81 13C-labeled methyl side chains and the carbonyl ^13C-Gly^79 on adjacent β-sheets.\nA truncated […], that mimics Aβ1-42 protein, was incubated with a glycine-rich transmembrane peptide (i.e., similar to APP). This target peptide corresponds to glycophorin A's transmembrane domain comprising a 17 amino acid peptide corresponding to amino acid residues 70-86. Glycophorin A, as a complete protein, is not known to form amyloid-like fibrils."}, "[5]": {"target": "Aβ1-42 protein (SEQ ID NO: 157) (Homo sapiens, UniProt P05067)", "sequence (P05067 672-713)": "as above", "assay": "Appearance (clearing, gel formation) of Aβ1-42 suspensions at pH 7", "format": "biochemical", "procedure": "(§2) The amyloid fibril inhibitor protein (SEQ ID NO: 1) was incubated at an equimolar ratio with ^13C-labeled Aβ1-42 peptides. During this incubation, electron microscopic images were taken over the course of two weeks in accordance with Example 6. […] In fact, suspensions of Aβ1-42 protein (SEQ ID NO: 157) prepared at pH 7 were normally cloudy and formed gels during fibril growth."}, "[6]": {"target": "Preformed amyloid fibrils comprising Aβ1-42 peptides (Homo sapiens, UniProt P05067)", "sequence (P05067 672-713)": "as above", "assay": "Depolymerization of preformed amyloid fibrils (fluorescence intensity)", "format": "biochemical", "conditions": "1:20 molar ratio; for depolymerization of pre-existing Aβ1-42 fibrils (words): FIG. 8", "procedure": "Preformed amyloid fibrils comprising Aβ1-42 peptides were incubated with and without SEQ ID NO: 1 (I1) a 1:20 molar ratio."}, "Aβ1-42 peptide [7]": {"target": "T1, Aβ1-42 peptide", "assay": "Fluorescence thioflavin T assay of amyloid fibrillization", "format": "biochemical", "procedure": "Amyloid fibrillization was measured by the fluorescence thioflavin T assay. Levine III, H, Methods in Enzymology 309: 274-305 (1999). The Aβ1-42 peptide was dissolved and fibrillization was followed over the course of two weeks by monitoring thioflavin T fluorescence. Hou et al., J. Am. Chem. Soc. in press (2004).\nThe effect of the inhibitor plateaus after three days and shown to be 70%±5 % effective in preventing fibrillization.\nInhibition activities were also measured by fluorescence intensity over time at the following molar ratios of Aβ1-42 peptide to SEQ ID NO:1 (I1) 1:0; 1:1; 1:5; and 1:20. (FIG. 7). […] Soto, et al., Nature Medicine 4:822-826 (1998); and Soto et al., Biochem. Biophys. Res. Comm. 226:672-680 (1996)."}, "Aβ1-42 peptides": {"target": "Aβ1-42 peptides (Homo sapiens, UniProt P05067)", "sequence (P05067 672-713)": "as above", "assay": "Electron microscopy of Aβ1-42 fibril formation in presence of inhibitor protein", "format": "biochemical", "conditions": "equimolar ratio with 13C-labeled Aβ1-42 peptides; images over two weeks", "procedure": "as §2\nFibrillized amyloid samples were prepared by incubation of aqueous solutions at an Aβ1-42 peptide concentration of approximately 0.2 mM in 1.0 mM phosphate buffer at pH 7.0 with the pH adjusted as necessary by dropwise addition of dilute NaOH or acetic acid. 0.01% NaN3 was added to inhibit bacterial and fungal growth. The solution was incubated for approximately 10 days at a temperature of 24° C., with gentle rocking (200 rpm). Aliquots of incubated solutions were taken for electron microscopic observations after 3-5 days. Amyloid fibril formation was verified by electron microscopic images of negatively stained samples.\nFor electron microscopic analysis, a 5 μL sample of the amyloid fibril was placed on a carbon coated Foamvar 200 mesh copper grid. The sample was allowed to stand for 15-30 sec and any excess solution was removed by wicking away. The samples were negatively stained with 2% (w/v) uranyl acetate. The excess was wicked away and allowed to dry. […]"}, "[8]": {"conditions": "24 hours of polymerization / 24 hour incubation, FIG. 10A, 10B"}}, "note": "Where two headings read alike, the source gives them in different places. No end group written: not given here."}
{"substance": "H-LPFFD-NH2 [SEQ ID NO: 160, NH2-LPFFD-NH2, reference compound]", "values": [{"measurement": "toxicity of peptide by itself to neuronal cell culture", "setting": "[1]", "value": "not toxic by themselves"}, {"measurement": "toxicity of peptide by itself to neuronal cell culture", "setting": "[1]; listed as I6", "value": "not present"}, {"measurement": "viability at 48 h", "setting": "[2]; 10X", "value": "97.9 ± 4.2", "unit": "%"}, {"measurement": "viability at 48 h", "setting": "[2]; 20X", "value": "97.8 ± 6.6", "unit": "%"}, {"measurement": "inhibition of Aβ1-42 peptide induced neurotoxicity", "setting": "[3]; [8]", "value": "Neither SEQ ID NO: 1 or SEQ ID NO: 160 reduced neurotoxicity"}, {"measurement": "inhibition of Aβ1-42 peptide induced neurotoxicity", "setting": "[3]; 24 hours of polymerization / 24 hour incubation, FIG. 10A, 10B, listed as SEQ ID NO:160", "value": "does not inhibit"}, {"measurement": "inhibition of Aβ1-42 peptide induced neurotoxicity", "setting": "[3]; 48 hours of polymerization / 48 hour incubation, FIG. 10C, 10D, listed as SEQ ID NO:160", "value": "does not inhibit"}, {"measurement": "reduction of Aβ1-42 neurotoxicity", "setting": "[3]", "value": "Neither SEQ ID NO: 1 or SEQ ID NO: 160 reduced neurotoxicity"}, {"measurement": "reported inhibitor activity (literature)", "setting": "Aβ1-42 peptide [4]", "value": "effective inhibitor"}]}
{"substance": "RATFEAKF-NH2 [SEQ ID NO: 19]", "values": [{"measurement": "ability to inhibit amyloid fibril formation", "setting": "GpA70-86 fibrils", "value": "most effective"}, {"measurement": "amyloid plaque inhibition activity with protected termini", "setting": "[3]", "value": "retain amyloid plaque inhibition activity"}]}
{"substance": "H-RGTFEGKF-NH2 [SEQ ID NO: 1]", "values": [{"measurement": "toxicity of peptide by itself to neuronal cell culture", "setting": "[1]", "value": "not toxic by themselves"}, {"measurement": "toxicity of peptide by itself to neuronal cell culture", "setting": "[1]; listed as I1", "value": "not present"}, {"measurement": "viability at 48 h", "setting": "[2]; 10X", "value": "91.7 ± 5.6", "unit": "%"}, {"measurement": "viability at 48 h", "setting": "[2]; 20X", "value": "90.5 ± 6.4", "unit": "%"}, {"measurement": "glycophorin A transmembrane peptide fibril formation", "setting": "GpA70-86 fibrils; 1:1 molar ratio", "value": "can be blocked"}, {"measurement": "ability to inhibit amyloid fibril formation", "setting": "GpA70-86 fibrils", "value": "most effective"}, {"measurement": "NMR cross peak between Met81 and Gly79 of GpA70-86 fibrils", "setting": "GpA70-86 fibrils; equimolar amount of inhibitor, FIG. 4D", "value": "absent"}, {"measurement": "gel formation of Aβ1-42 suspensions", "setting": "[5]; pH 7, over a two week period or longer", "value": "did not form gel compositions"}, {"measurement": "time until Aβ1-42 suspensions became clear after addition", "setting": "[5]; suspensions prepared at pH 7", "value": "less than 5 seconds"}, {"measurement": "inhibition of Aβ1-42 peptide induced neurotoxicity", "setting": "[3]; [8]", "value": "Neither SEQ ID NO: 1 or SEQ ID NO: 160 reduced neurotoxicity"}, {"measurement": "inhibition of Aβ1-42 peptide induced neurotoxicity", "setting": "[3]; 24 hours of polymerization / 24 hour incubation, FIG. 10A, 10B, listed as SEQ ID NO:1", "value": "does not inhibit"}, {"measurement": "inhibition of Aβ1-42 peptide induced neurotoxicity", "setting": "[3]; 48 hours of polymerization / 48 hour incubation, FIG. 10C, 10D", "value": "dose-dependently inhibited neurotoxicity"}, {"measurement": "inhibition of Aβ1-42 peptide induced neurotoxicity", "setting": "[3]; 48 hours of polymerization / 48 hour incubation, FIG. 10C, 10D, listed as SEQ ID NO:1", "value": "does inhibit"}, {"measurement": "amyloid plaque inhibition activity with protected termini", "setting": "[3]", "value": "retain amyloid plaque inhibition activity"}, {"measurement": "reduction of Aβ1-42 neurotoxicity", "setting": "[3]", "value": "Neither SEQ ID NO: 1 or SEQ ID NO: 160 reduced neurotoxicity"}, {"measurement": "depolymerization of pre-existing Aβ1-42 fibrils (words)", "setting": "[6]", "value": "depolymerizes pre-existing amyloid fibrils"}, {"measurement": "depolymerization of pre-existing Aβ1-42 fibrils (words)", "setting": "[6]; listed as SEQ ID NO:1", "value": "depolymerizes Aβ1-42 fibrils"}, {"measurement": "depolymerization rate and polymerization rate", "setting": "[6]; after Day 4", "value": "apparently reaches equilibrium"}, {"measurement": "depolymerization rate", "setting": "[6]; first four incubation days", "value": "apparent linear depolymerization rate"}, {"measurement": "inhibition of Aβ1-42 fibrillization / amyloid fibril polymerization (words)", "setting": "Aβ1-42 peptide [7]; FIG. 6, FIG. 7", "value": "inhibits amyloid fibril polymerization in a time and dose-dependent manner"}, {"measurement": "inhibition of Aβ1-42 fibrillization / amyloid fibril polymerization (words)", "setting": "Aβ1-42 peptide [7]; FIG. 6, FIG. 7, listed as SEQ ID NO:1", "value": "inhibits fibrillization"}, {"measurement": "fibrils in electron microscopic images", "setting": "Aβ1-42 peptides", "value": "no detectable fibrils"}]}
